Reference: US20260272936A1, “TREATMENT OF CANCER WITH A PARG INHIBITOR” (858 Therapeutics, Inc., priority 2023, published 2026)
pIC50, pKd: −log10 of the molar value.

Tests used:
[1] = test system: T025OV ovarian cancer patient-derived organoid; assay: 7-day organoid colony formation, ATP content (Cell Titer Glo 3D); format: cell-based; conditions: Homo sapiens, 168 h, T025OV PDO, 7 days, geometric mean
Text: The FU-97 (Cat #JCRB1074) human gastric cancer cell line and the Kuramochi (Cat #JCRB0098) and RMUG-S(Cat #IFO50320) human ovarian cancer cell lines were obtained from the National Institutes of Biomedical Innovation, Health and Nutrition's Japanese Collection of Research Bioresources (JCRB) (Ibaraki City, Osaka, Japan). The HCC1419 (Cat #CRL-2326) and HCC1428 (Cat #CRL-2327) human breast cancer cell lines and the NCI-H1650 (Cat #CRL-5883) and NCI-H1792 (Cat #CRL-5895) non-small cell lung cancer cell lines were obtained from ATCC (Manassas, Virginia, USA). The human gastric cancer cell lines GCIY (Cat #RCB0555) and SNU601 (Cat #CSC-C9686L) were obtained from the Riken Bioresource Research Center (Tsukuba, Ibaraki, Japan) and Creative Bioarray (Shirley, NY, USA), respectively. The T025OV ovarian cancer organoid model was developed from a patient-derived xenograft (PDX) model, which was developed from primary serous ovarian carcinoma cells obtained from Discovery Life Sciences (Huntsville, AL, USA, SN #350627149). […]
Compound 1 IC50 values for inhibition of organoid colony formation were determined by measuring ATP levels after 7 days of treatment utilizing Cell Titer Glo 3D reagent (Promega, Madison, WI, USA Cat #G9683). […] Luminescence values (RLU) were read-out using a Clariostar plate reader (BMG Labtech, Cary, NC). […]

[2] = molecular target: T1, human recombinant PARG (AA 389-976) (Homo sapiens, UniProt Q86W56); assay: Surface plasmon resonance (SPR) direct binding
T1 construct: His-tagged human recombinant PARG (AA 389-976) was coupled to a CM5 biosensor chip; made in house; host or cells: E. coli BL21 (DE3), pET28a
T1 sequence (Q86W56 389-976): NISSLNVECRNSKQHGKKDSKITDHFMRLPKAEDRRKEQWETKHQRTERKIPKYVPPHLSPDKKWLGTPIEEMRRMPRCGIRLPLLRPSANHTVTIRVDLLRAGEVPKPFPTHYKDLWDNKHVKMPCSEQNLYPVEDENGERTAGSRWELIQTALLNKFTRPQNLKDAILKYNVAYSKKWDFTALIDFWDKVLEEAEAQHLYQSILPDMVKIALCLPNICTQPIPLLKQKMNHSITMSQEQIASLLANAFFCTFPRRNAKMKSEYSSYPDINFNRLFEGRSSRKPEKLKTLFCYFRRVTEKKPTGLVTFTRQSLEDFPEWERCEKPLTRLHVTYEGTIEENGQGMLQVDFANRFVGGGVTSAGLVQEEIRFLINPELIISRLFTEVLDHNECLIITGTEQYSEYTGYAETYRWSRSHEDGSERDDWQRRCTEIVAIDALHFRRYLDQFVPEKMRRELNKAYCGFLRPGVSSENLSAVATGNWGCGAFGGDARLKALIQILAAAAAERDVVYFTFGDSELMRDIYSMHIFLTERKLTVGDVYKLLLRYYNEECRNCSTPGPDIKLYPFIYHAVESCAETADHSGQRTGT

**Q.** How did the pIC50 ([1]; read-out: IC50 inhibition of ATP content) turn out when `[2H]C([2H])(c1cnn(C)c1)N1C(=O)c2cc(S(=O)(=O)NC3(C)CC3)ccc2N2C1=NC[C@H]2C` [Compound 1, (R)-1-methyl-4-((1-methyl-1H-pyrazol-4-yl)methyl-d2)-N-(1-methylcyclopropyl)-5-oxo-1,2,4,5-tetrahydroimidazo[1,2-a]quinazoline-7-sulfonamide] was run?
**A.** 5.97

**Q.** And the IC90 ([1]; read-out: IC90 inhibition of ATP content)?
**A.** 10.7 µM

**Q.** What about the pKd ([2]; SPR kinetic KD, 1:1 binding, 25° C., mean n=2) of the same compound?
**A.** 8.96

**Q.** And the “Rmax (Relative Units)” value ([2]; relative amount of PARG bound by Compound 1)?
**A.** 15.9 Relative Units

**Q.** What about the “Theoretical Rmax” value ([2]; total amount of PARG immobilized on the biosensor chip) of the same compound?
**A.** 19.8
